± gives the standard deviation of the averaged measurements.
What was measured:
SOTRASTAURIN/AEB071 [1] = compound: T1, CN1CCN(c2nc(C3=C(c4c[nH]c5ccccc45)C(=O)NC3=O)c3ccccc3n2)CC1 [SOTRASTAURIN/AEB071]; assay: surviving fraction relative to DMSO-only wells; higher = less growth inhibition; conditions: exposure time: 5 days
Summary of the method: (§1)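 Five days of continuous inhibitor exposure, at 0.5, 1, 5, 10, 50, 100, 500 and 1000 nM, followed a 24-hour period after log-phase tumour cell lines were seeded at 250–500 cells per well in 384-well plates. Surviving fraction was derived from CellTiter-Glo luminescence relative to the median of DMSO-only wells. Plates were read after 10 minutes at room temperature, and lines screened three times were kept only if replicate Pearson r >0.7 and median Z' >0.3.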

[2] = compound: CNCc1ccc(-c2[nH]c3cc(F)cc4c3c2CCNC4=O)cc1; assay: as above; conditions: exposure time: 5 days
Summary of the method: as §1

FORETINIB [3] = compound: T2, COc1cc2c(Oc3ccc(NC(=O)C4(C(=O)Nc5ccc(F)cc5)CC4)cc3F)ccnc2cc1OCCCN1CCOCC1 [FORETINIB]; assay: as above; conditions: exposure time: 5 days
Summary of the method: as §1

CRIZOTINIB [4] = compound: T3, C[C@@H](Oc1cc(-c2cnn(C3CCNCC3)c2)cnc1N)c1c(Cl)ccc(F)c1Cl [CRIZOTINIB]; assay: as above; conditions: exposure time: 5 days
Summary of the method: as §1

DASATINIB [5] = compound: T4, Cc1nc(Nc2ncc(C(=O)Nc3c(C)cccc3Cl)s2)cc(N2CCN(CCO)CC2)n1 [DASATINIB]; assay: as above; conditions: exposure time: 5 days
Summary of the method: as §1

TEMOZOLOMIDE [6] = compound: T5, Cn1nnc2c(C(N)=O)ncn2c1=O [TEMOZOLOMIDE]; assay: as above; conditions: exposure time: 5 days
Summary of the method: as §1

MLN-4924 [7] = compound: T6, NS(=O)(=O)OC[C@@H]1C[C@@H](n2ccc3c(N[C@H]4CCc5ccccc54)ncnc32)C[C@@H]1O [MLN-4924]; assay: as above; conditions: exposure time: 5 days
Summary of the method: as §1

SOTRASTAURIN/AEB071 [8] = compound: T1, SOTRASTAURIN/AEB071; assay: area under dose-response curve of surviving fraction (unscaled, Aref=0) (surviving fraction x log10(nM)); higher = more resistant; conditions: exposure time: 5 days; dose range 0.5-1000 nM
Summary of the method: (§2)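 Three screens per tumour cell line were run in 384-well plates at eight inhibitor concentrations from 0.5 to 1000 nM over five days. Surviving fractions, from CellTiter-Glo luminescence normalised to DMSO-only wells, were fitted with 3-parameter logistic curves in the drc R package. The reported area under the curve is the unscaled activity area. It spans log10 dose, and Aref is 0.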

[9] = compound: CNCc1ccc(-c2[nH]c3cc(F)cc4c3c2CCNC4=O)cc1; assay: as above; conditions: exposure time: 5 days; dose range 0.5-1000 nM
Summary of the method: as §2

FORETINIB [10] = compound: T2, FORETINIB; assay: as above; conditions: exposure time: 5 days; dose range 0.5-1000 nM
Summary of the method: as §2

CRIZOTINIB [11] = compound: T3, CRIZOTINIB; assay: as above; conditions: exposure time: 5 days; dose range 0.5-1000 nM
Summary of the method: as §2

DASATINIB [12] = compound: T4, DASATINIB; assay: as above; conditions: exposure time: 5 days; dose range 0.5-1000 nM
Summary of the method: as §2

TEMOZOLOMIDE [13] = compound: T5, TEMOZOLOMIDE; assay: as above; conditions: exposure time: 5 days; dose range 0.5-1000 nM
Summary of the method: as §2

MLN-4924 [14] = compound: T6, MLN-4924; assay: as above; conditions: exposure time: 5 days; dose range 0.5-1000 nM
Summary of the method: as §2

[15] = compound: CCn1c(C(=O)N(C2CC2)C2CC2)cc2c3c(ncn3C)c(Nc3cc(C)n(C)n3)nc21; assay: as above; conditions: exposure time: 5 days; dose range 0.5-1000 nM
Summary of the method: as §2

SORAFENIB = compound: CNC(=O)c1cc(Oc2ccc(NC(=O)Nc3ccc(Cl)c(C(F)(F)F)c3)cc2)ccn1 [SORAFENIB]; assay: as above; conditions: exposure time: 5 days; dose range 0.5-1000 nM
Summary of the method: as §2

[16] = compound: COc1cc2ncnc(Nc3ccc(F)c(Cl)c3)c2cc1NC(=O)/C=C/CN1CCCCC1; assay: as above; conditions: exposure time: 5 days; dose range 0.5-1000 nM
Summary of the method: as §2

[17] = compound: C[C@@H](Oc1cc(-c2cnn(C3CCNCC3)c2)cnc1N)c1c(Cl)ccc(F)c1Cl; assay: as above; conditions: exposure time: 5 days; dose range 0.5-1000 nM
Summary of the method: as §2

ABIRATERONE = compound: C[C@]12CC[C@H](O)CC1=CC[C@@H]1[C@@H]2CC[C@]2(C)C(c3cccnc3)=CC[C@@H]12 [ABIRATERONE]; assay: as above; conditions: exposure time: 5 days; dose range 0.5-1000 nM
Summary of the method: as §2

OLAPARIB = compound: O=C(c1cc(Cc2n[nH]c(=O)c3ccccc23)ccc1F)N1CCN(C(=O)C2CC2)CC1 [OLAPARIB]; assay: as above; conditions: exposure time: 5 days; dose range 0.5-1000 nM
Summary of the method: as §2

XAV-939 = compound: Oc1nc(-c2ccc(C(F)(F)F)cc2)nc2c1CSCC2 [XAV-939]; assay: as above; conditions: exposure time: 5 days; dose range 0.5-1000 nM
Summary of the method: as §2

CCK81 LARGE INTESTINE
surviving fraction (SOTRASTAURIN/AEB071 [1]; 0.5 nM): 0.811 ± 0.12 | surviving fraction (SOTRASTAURIN/AEB071 [1]; 1 nM): 0.829 ± 0.13 | surviving fraction (SOTRASTAURIN/AEB071 [1]; 5 nM): 0.892 ± 0.075 | surviving fraction (SOTRASTAURIN/AEB071 [1]; 10 nM): 0.814 ± 0.079 | surviving fraction (SOTRASTAURIN/AEB071 [1]; 50 nM): 0.917 ± 0.0085 | surviving fraction (SOTRASTAURIN/AEB071 [1]; 100 nM): 0.866 ± 0.038 | surviving fraction (SOTRASTAURIN/AEB071 [1]; 500 nM): 0.943 ± 0.088 | surviving fraction (SOTRASTAURIN/AEB071 [1]; 1000 nM): 0.83 ± 0.064 | surviving fraction ([2]; 0.5 nM): 0.829 ± 0.06 | surviving fraction ([2]; 1 nM): 0.766 ± 0.13 | surviving fraction ([2]; 5 nM): 0.861 ± 0.24 | surviving fraction ([2]; 10 nM): 0.719 ± 0.12 | surviving fraction ([2]; 50 nM): 0.789 ± 0.041 | surviving fraction ([2]; 100 nM): 0.803 ± 0.058 | surviving fraction ([2]; 500 nM): 0.914 ± 0.053 | surviving fraction ([2]; 1000 nM): 0.783 ± 0.023 | surviving fraction (FORETINIB [3]; 0.5 nM): 0.867 ± 0.085 | surviving fraction (FORETINIB [3]; 1 nM): 0.729 ± 0.084 | surviving fraction (FORETINIB [3]; 5 nM): 0.719 ± 0.059 | surviving fraction (FORETINIB [3]; 10 nM): 0.726 ± 0.13 | surviving fraction (FORETINIB [3]; 50 nM): 0.793 ± 0.065 | surviving fraction (FORETINIB [3]; 100 nM): 0.757 ± 0.025 | surviving fraction (FORETINIB [3]; 500 nM): 0.559 ± 0.043 | surviving fraction (FORETINIB [3]; 1000 nM): 0.338 ± 0.083 | surviving fraction (CRIZOTINIB [4]; 1 nM): 0.854 ± 0.084 | surviving fraction (CRIZOTINIB [4]; 5 nM): 0.776 ± 0.15 | surviving fraction (CRIZOTINIB [4]; 10 nM): 0.788 ± 0.087 | surviving fraction (CRIZOTINIB [4]; 50 nM): 0.749 ± 0.11 | surviving fraction (CRIZOTINIB [4]; 100 nM): 0.718 ± 0.028 | surviving fraction (CRIZOTINIB [4]; 500 nM): 0.62 ± 0.12 | surviving fraction (CRIZOTINIB [4]; 1000 nM): 0.315 ± 0.053 | surviving fraction (DASATINIB [5]; 0.5 nM): 0.942 ± 0.19 | surviving fraction (DASATINIB [5]; 1 nM): 0.774 ± 0.035 | surviving fraction (DASATINIB [5]; 5 nM): 0.741 ± 0.13 | surviving fraction (DASATINIB [5]; 10 nM): 0.744 ± 0.059 | surviving fraction (DASATINIB [5]; 50 nM): 0.577 ± 0.1 | surviving fraction (DASATINIB [5]; 100 nM): 0.411 ± 0.1 | surviving fraction (DASATINIB [5]; 500 nM): 0.0847 ± 0.02 | surviving fraction (DASATINIB [5]; 1000 nM): 0.0473 ± 0.012 | surviving fraction (TEMOZOLOMIDE [6]; 0.5 nM): 0.766 ± 0.075 | surviving fraction (TEMOZOLOMIDE [6]; 1 nM): 0.729 ± 0.06 | surviving fraction (TEMOZOLOMIDE [6]; 5 nM): 0.744 ± 0.041 | surviving fraction (TEMOZOLOMIDE [6]; 10 nM): 0.771 ± 0.024 | surviving fraction (TEMOZOLOMIDE [6]; 50 nM): 0.775 ± 0.083 | surviving fraction (TEMOZOLOMIDE [6]; 100 nM): 0.745 ± 0.048 | surviving fraction (TEMOZOLOMIDE [6]; 500 nM): 0.789 ± 0.033 | surviving fraction (TEMOZOLOMIDE [6]; 1000 nM): 0.817 ± 0.055 | surviving fraction (MLN-4924 [7]; 0.5 nM): 0.87 ± 0.11 | surviving fraction (MLN-4924 [7]; 1 nM): 0.814 ± 0.12 | surviving fraction (MLN-4924 [7]; 5 nM): 0.704 ± 0.15 | surviving fraction (MLN-4924 [7]; 10 nM): 0.794 ± 0.088 | surviving fraction (MLN-4924 [7]; 50 nM): 0.867 ± 0.07 | surviving fraction (MLN-4924 [7]; 100 nM): 0.831 ± 0.059 | surviving fraction (MLN-4924 [7]; 500 nM): 0.567 ± 0.066 | surviving fraction (MLN-4924 [7]; 1000 nM): 0.473 ± 0.065 | area under dose-response curve (SOTRASTAURIN/AEB071 [8]): 2.85 | area under dose-response curve [9]: 2.66 | area under dose-response curve (FORETINIB [10]): 2.29 | area under dose-response curve (CRIZOTINIB [11]): 2.36 | area under dose-response curve (DASATINIB [12]): 1.86 | area under dose-response curve (TEMOZOLOMIDE [13]): 2.52 | area under dose-response curve (MLN-4924 [14]): 2.47

HS57T LUNG
area under dose-response curve [15]: 3.21 | area under dose-response curve (SORAFENIB): 3.44 | area under dose-response curve [9]: 3.17 | area under dose-response curve (FORETINIB [10]): 3.04 | area under dose-response curve [16]: 3.17 | area under dose-response curve (CRIZOTINIB [11]): 3.12 | area under dose-response curve [17]: 2.97 | area under dose-response curve (ABIRATERONE): 3.71 | area under dose-response curve (DASATINIB [12]): 1.87 | area under dose-response curve (TEMOZOLOMIDE [13]): 3.27 | area under dose-response curve (MLN-4924 [14]): 2.38 | area under dose-response curve (OLAPARIB): 3.54 | area under dose-response curve (XAV-939): 3.24
